Experimental data taken from article PMC4965013, “Open Source Drug Discovery with the Malaria Box Compound Collection for Neglected Diseases and Beyond” (PLoS Pathogens, 2016).

Tested on: P. falciparum 3D7 trophozoites
Assay: Metabolomic fingerprint profiling LC-MS
Assay type: cell-based, Plasmodium falciparum
Parameters: UDP-D-glucose / ADP-D-glucose: unit not given here
[1] = metabolite level change after treatment

For `O=C(CSc1nccn2nc(-c3ccccc3)cc12)Nc1cc(C(F)(F)F)ccc1Cl` [MMV396678], the Acetyllysine (S2 Table Metabolomics, metabolite Acetyllysine) was -0.4877, the N-acetyl-L-ornithine (S2 Table Metabolomics, metabolite N-acetyl-L-ornithine) was -0.4938 and the N-carbamoyl-L-aspartate (S2 Table Metabolomics, metabolite N-carbamoyl-L-aspartate) was 3.602. The NADPH (S2 Table Metabolomics, metabolite NADPH) was -0.3509, the dAMP (S2 Table Metabolomics, metabolite dAMP) was -2.425 and the dCMP (S2 Table Metabolomics, metabolite dCMP) was -0.1067. It also gave a dTDP (S2 Table Metabolomics, metabolite dTDP) of -0.8621, a dTMP (S2 Table Metabolomics, metabolite dTMP) of -0.7966 and a dTTP (S2 Table Metabolomics, metabolite dTTP) of -1.266. The dihydroorotate (S2 Table Metabolomics, metabolite dihydroorotate) was 4.597, the orotate (S2 Table Metabolomics, metabolite orotate) was 0.259 and the DLH (S2 Table Metabolomics, peptide DLH) was -0.3174. The DLS/SDL/SID (S2 Table Metabolomics, peptide DLS/SDL/SID) was -0.3424, the PD (S2 Table Metabolomics, peptide PD) was -0.07917 and the PEE (S2 Table Metabolomics, peptide PEE) was -0.441. It also gave a PVNF (S2 Table Metabolomics, peptide PVNF) of -2.237, a 3-phosphoglycerate (metabolite 3-phosphoglycerate, S2 Table Metabolomics) of -0.1451 and an ADP-D-glucose (metabolite ADP-D-glucose, S2 Table Metabolomics) of -0.07756. It also gave an ATP (metabolite ATP, S2 Table Metabolomics) of 0.1007, a CDP (metabolite CDP, S2 Table Metabolomics, change in metabolite level after compound treatment) of -0.7494 and a D-sedoheptulose-1/7-phosphate (metabolite D-sedoheptulose-1/7-phosphate, S2 Table Metabolomics, change in metabolite level after compound treatment) of -0.4438. The FAD (metabolite FAD, S2 Table Metabolomics) was -0.03171, the GMP (metabolite GMP, S2 Table Metabolomics, change in metabolite level after compound treatment) was 0.3554 and the “NAD+” value (metabolite NAD+, S2 Table Metabolomics) was 0.01671. For the same compound, the “NADP+” value (metabolite NADP+, S2 Table Metabolomics) was -0.09002, the “Octoluse Bisphosphate” value (metabolite Octoluse Bisphosphate, S2 Table Metabolomics, change in metabolite level after compound treatment) was -0.2508 and the Pyroglutamic acid (metabolite Pyroglutamic acid, S2 Table Metabolomics) was 0.3744. For the same compound, the UDP-D-glucose (metabolite UDP-D-glucose, S2 Table Metabolomics) was -0.1169, the UDP-D-glucuronate (metabolite UDP-D-glucuronate, S2 Table Metabolomics) was -0.3093 and the UDP-N-acetyl-glucosamine (metabolite UDP-N-acetyl-glucosamine, S2 Table Metabolomics) was -0.3205. The UDP (metabolite UDP, S2 Table Metabolomics, change in metabolite level after compound treatment) was -0.9356, the UMP (metabolite UMP, S2 Table Metabolomics, change in metabolite level after compound treatment) was -0.7589 and the UTP (metabolite UTP, S2 Table Metabolomics, change in metabolite level after compound treatment) was -1.3566. It also gave an a-ketoglutarate (metabolite a-ketoglutarate, S2 Table Metabolomics) of 0.2592, a citrate/isocitrate (metabolite citrate/isocitrate, S2 Table Metabolomics, change in metabolite level after compound treatment) of 0.4562 and a cytidine (metabolite cytidine, S2 Table Metabolomics) of 0.4629. The dATP (metabolite dATP, S2 Table Metabolomics) was 0.2611, the dGMP/AMP (metabolite dGMP/AMP, S2 Table Metabolomics, change in metabolite level after compound treatment) was -0.1351 and the fumarate (metabolite fumarate, S2 Table Metabolomics, change in metabolite level after compound treatment) was 0.07736. The glucose-1/6-phosphate (metabolite glucose-1/6-phosphate, S2 Table Metabolomics, change in metabolite level after compound treatment) was 0.1714, the glycerate (metabolite glycerate, S2 Table Metabolomics, change in metabolite level after compound treatment) was 0.291 and the guanine (metabolite guanine, S2 Table Metabolomics, change in metabolite level after compound treatment) was 0.4817. For the same compound, the guanosine (metabolite guanosine, S2 Table Metabolomics, change in metabolite level after compound treatment) was 0.7569, the hypoxanthine (metabolite hypoxanthine, S2 Table Metabolomics) was 0.5204 and the indole (metabolite indole, S2 Table Metabolomics) was 0.3835. The inosine (metabolite inosine, S2 Table Metabolomics, change in metabolite level after compound treatment) was 0.4193, the 2_3-Diphosphoglyceric acid [1] was -0.1645 and the 4-phosphopantothenate [1] was -0.3586. The 6-phospho-D-gluconate [1] was -0.1209, the FMN [1] was -0.2869 and the IMP [1] was 0.1606. The Pyrophosphate [1] was -0.1573, the Sedoheptoluse bisphosphate [1] was -0.2556 and the cyclic-AMP [1] was -0.1203. For the same compound, the glutathione disulfide [1] was -0.08653, the lactate [1] was 0.1751 and the myo-inositol [1] was -0.2117. The nicotinate (metabolite nicotinate, S2 Table Metabolomics) was 0.4349, the ornithine (metabolite ornithine, S2 Table Metabolomics) was 0.266 and the phosphoenolpyruvate (metabolite phosphoenolpyruvate, S2 Table Metabolomics) was 0.01446. The pyruvate (metabolite pyruvate, S2 Table Metabolomics, change in metabolite level after compound treatment) was 0.3754, the ribose-phosphate (metabolite ribose-phosphate, S2 Table Metabolomics) was -0.04013 and the sarcosine/alanine (metabolite sarcosine/alanine, S2 Table Metabolomics, change in metabolite level after compound treatment) was -0.09301. For the same compound, the sn-glycerol-3-phosphate (metabolite sn-glycerol-3-phosphate, S2 Table Metabolomics) was -0.3771, the succinate/methylmalonic acid (metabolite succinate/methylmalonic acid, S2 Table Metabolomics, change in metabolite level after compound treatment) was 0.03069 and the uridine (metabolite uridine, S2 Table Metabolomics, change in metabolite level after compound treatment) was 0.1532. The xanthosine (metabolite xanthosine, S2 Table Metabolomics, change in metabolite level after compound treatment) was 0.489.
